Experimental data from the NIST ThermoML archive (doi:10.1016/j.jct.2016.12.019).

Test: xn = mol fraction of the nth substance listed
Conditions: 100 kPa, Liquid; for viscosity: Capillary tube (Ostwald / Ubbelohde) method; for speed of sound: Frequency=2 MHz, Linear variable-path acoustic interferometer; for mass density: Vibrating tube method

CCN(CC)c1ccccc1 [N,N-diethylaniline] + CCCCCCCCCO
Conditions | mass density [kg/m3] | speed of sound [m/s] | viscosity [mPa·s]
303.15 K, x1 = 0.1136 | 829.82 | 1359 | 6.563
303.15 K, x1 = 0.2326 | 840.12 | 1362.8 | 5.409
303.15 K, x1 = 0.3469 | 850.43 | 1367.6 | 4.509
303.15 K, x1 = 0.4541 | 860.76 | 1373.5 | 3.804
303.15 K, x1 = 0.5549 | 871.13 | 1380.2 | 3.248
303.15 K, x1 = 0.6498 | 881.45 | 1387.8 | 2.805
303.15 K, x1 = 0.7293 | 890.62 | 1395.3 | 2.488
303.15 K, x1 = 0.8244 | 902.24 | 1405.9 | 2.166
303.15 K, x1 = 0.9041 | 912.58 | 1416.7 | 1.938
303.15 K, x1 = 1 | 925.8 | 1432 | 1.711
308.15 K, x1 = 0.1136 | 826.24 | 1336.3 | 5.491
308.15 K, x1 = 0.2326 | 836.48 | 1340.6 | 4.557
308.15 K, x1 = 0.3469 | 846.76 | 1346.2 | 3.828
308.15 K, x1 = 0.4541 | 857.04 | 1352.7 | 3.252
308.15 K, x1 = 0.5549 | 867.33 | 1360.1 | 2.794
308.15 K, x1 = 0.6498 | 877.63 | 1368.3 | 2.427
308.15 K, x1 = 0.7293 | 886.75 | 1376.3 | 2.164
308.15 K, x1 = 0.8244 | 898.32 | 1387.7 | 1.898
308.15 K, x1 = 0.9041 | 908.61 | 1399.2 | 1.714
308.15 K, x1 = 1 | 921.8 | 1416 | 1.537
313.15 K, x1 = 0.1136 | 822.7 | 1315.3 | 4.791
313.15 K, x1 = 0.2326 | 832.9 | 1320 | 3.988
313.15 K, x1 = 0.3469 | 843.13 | 1325.9 | 3.362
313.15 K, x1 = 0.4541 | 853.37 | 1332.7 | 2.867
313.15 K, x1 = 0.5549 | 863.63 | 1340.4 | 2.471
313.15 K, x1 = 0.6498 | 873.88 | 1348.9 | 2.154
313.15 K, x1 = 0.7293 | 882.96 | 1357.1 | 1.926
313.15 K, x1 = 0.8244 | 894.48 | 1368.8 | 1.697
313.15 K, x1 = 0.9041 | 904.74 | 1380.6 | 1.541
313.15 K, x1 = 1 | 917.9 | 1398 | 1.4
318.15 K, x1 = 0.1136 | 817.68 | 1295.7 | 3.979
318.15 K, x1 = 0.2326 | 827.96 | 1300.3 | 3.341
318.15 K, x1 = 0.3469 | 838.28 | 1306.2 | 2.843
318.15 K, x1 = 0.4541 | 848.61 | 1312.9 | 2.447
318.15 K, x1 = 0.5549 | 858.95 | 1320.6 | 2.128
318.15 K, x1 = 0.6498 | 869.3 | 1328.9 | 1.869
318.15 K, x1 = 0.7293 | 878.48 | 1337.1 | 1.683
318.15 K, x1 = 0.8244 | 890.11 | 1348.6 | 1.498
318.15 K, x1 = 0.9041 | 900.48 | 1360.3 | 1.377
318.15 K, x1 = 1 | 913.8 | 1378 | 1.276
